Experimental data: patent US9050341B2, “Methods of treating drug resistant and other tumors by administering 6,7-dialkoxy quinazoline derivatives” (NATCO PHARMA LIMITED, priority 2009, dated 2015)

What was measured:
Experiment in all cases: KinomeScan kinase profiling
Assay type in all cases: binding
INSR = target: T1, INSR (Homo sapiens, UniProt P06213)
T1 construct: host or cells: T7 phage in E. coli host derived from BL21
Source text: (§1) The kinases were ABL1(F317L), ABL1(H396P), ABL1(Q252H), ABL1(Y253F), ADCK3, ADCK4, ALK, ARK5, AXL, BLK, BRSK2, CDK7, CIT, CLK4, CSNK1D, CSNK1E, DAPK1, DAPK3, DCAMKL3, DMPK, EGFR, EGFR(E746-A750DEL), EGFR(G719C), EGFR(G719S), EGFR(L747-E749DEL, A750P), EGFR(L747-S752 DEL, P753S), EGFR(L747-T751DEL, Sin), EGFR(L858R), EGFR(L861Q), EGFR(S752-I759DEL), EPHA5, EPHA6, ERBB2, ERBB4, ERK3, ERK4, FGR, FLT3(D835H), FLT3(D835Y), FLT3(ITD), FLT3(N841 I), FRK, GAK, GCN2(KIN.DOM.2, S808G), HCK, IRAK3, JAK1(KIN.DOM.1), KIT, KIT(D816V), KIT(V559D), KIT(V559D,T670I), LCK, LOK, LTK, LYN, MAP3K3, MAP4K4, MAP4K5, MET, MINK, MKNK1, MKNK2, MST4, MYLK2, PDGFRB, PIM3, PKN2, PRKD1, PRKD2, PRKD3, PRKG1, RIPK2, RPS6KA4(KIN.DOM.2), SIK2, SLK, SNARK, SRC, STK36, TNIK, TNNI3K, TYK2(KIN.DOM.2).
(§2) Kinase assays: Assays were performed as described in Fabian et al. (2005) Nature Biotechnology, vol. 23, p. 329. Kinase-tagged T7 phage strains were grown in parallel in 24 or 96-well blocks in an E. coli host derived from the BL21 strain. E. coli were grown to log-phase and infected with T7 phage from a frozen stock (multiplicity of infection ˜0.1) and incubated with shaking at 32° C. until lysis (˜90 minutes). The lysates were centrifuged and filtered to remove cell debris. […] The liganded beads were blocked with excess biotin and washed with blocking buffer (SeaBlock (Pierce), 1% BSA, 0.05% Tween 20, 1 mM DTT) to remove unbound ligand and to reduce non-specific phage binding.
(§3) Test compounds were prepared as 40× stocks in DMSO and diluted into the aqueous environment. 2.5% DMSO was added to control assays lacking a test compound. All reactions were performed in polystyrene 96-well plates that had been pretreated with blocking buffer in a final volume of 0.04 ml. […] The phage titer in the eluates was measured by quantitative PCR.

BRK = target: T2, BRK (Homo sapiens, UniProt Q13882)
T2 construct: purchased Ambit Biosciences Corp (KinomeScan); host or cells: E. coli host derived from the BL21 strain, T7 phage
Source text: as §1, §2, §3

[1] = target: T3, RPS6KA6 (Kin.Dom.-1-N-terminal) (Homo sapiens, UniProt Q9UK32)
T3 construct: RPS6KA6 (Kin.Dom.-1-N-terminal); host or cells: E. coli host derived from BL21, T7 phage lysate
T3 sequence (Q9UK32 73-330 limits assumed): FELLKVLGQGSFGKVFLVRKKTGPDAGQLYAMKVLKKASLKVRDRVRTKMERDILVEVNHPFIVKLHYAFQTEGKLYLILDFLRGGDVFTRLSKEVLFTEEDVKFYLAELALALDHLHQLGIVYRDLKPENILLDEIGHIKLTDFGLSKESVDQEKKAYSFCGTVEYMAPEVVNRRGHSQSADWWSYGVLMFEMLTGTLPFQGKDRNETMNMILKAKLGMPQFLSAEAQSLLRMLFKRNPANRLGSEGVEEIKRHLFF
Source text: as §1, §2, §3

[2] = target: T4, RPS6KA5 (Kin.Dom.-1-N-terminal) (Homo sapiens, UniProt O75582)
T4 construct: RPS6KA5 (Kin.Dom.-1-N-terminal); host or cells: E. coli host derived from BL21, T7 phage lysate
T4 sequence (O75582 49-318 limits assumed): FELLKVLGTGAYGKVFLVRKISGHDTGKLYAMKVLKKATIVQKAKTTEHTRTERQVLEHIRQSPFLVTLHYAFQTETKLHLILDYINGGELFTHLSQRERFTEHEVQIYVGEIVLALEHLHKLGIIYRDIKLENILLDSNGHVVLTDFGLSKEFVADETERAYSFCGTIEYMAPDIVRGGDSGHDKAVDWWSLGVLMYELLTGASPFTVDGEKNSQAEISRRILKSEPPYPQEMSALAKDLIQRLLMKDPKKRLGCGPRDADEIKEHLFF
Source text: as §1, §2, §3

NEK2 = target: T5, NEK2 (Homo sapiens, UniProt P51955)
T5 construct: host or cells: T7 phage in E. coli host derived from BL21
Source text: as §1, §2, §3

PKMYT1 = target: T6, PKMYT1 (Homo sapiens, UniProt Q99640)
T6 construct: purchased Ambit Biosciences Corp (KinomeScan); host or cells: E. coli host derived from BL21, infected with T7 phage
Source text: as §1, §2, §3

WEE1 = target: T7, WEE1 (Homo sapiens, UniProt P30291)
T7 construct: purchased Ambit Biosciences Corp (KinomeScan); host or cells: E. coli host derived from the BL21 strain (T7 phage lysate)
T7 sequence (P30291 whole entry): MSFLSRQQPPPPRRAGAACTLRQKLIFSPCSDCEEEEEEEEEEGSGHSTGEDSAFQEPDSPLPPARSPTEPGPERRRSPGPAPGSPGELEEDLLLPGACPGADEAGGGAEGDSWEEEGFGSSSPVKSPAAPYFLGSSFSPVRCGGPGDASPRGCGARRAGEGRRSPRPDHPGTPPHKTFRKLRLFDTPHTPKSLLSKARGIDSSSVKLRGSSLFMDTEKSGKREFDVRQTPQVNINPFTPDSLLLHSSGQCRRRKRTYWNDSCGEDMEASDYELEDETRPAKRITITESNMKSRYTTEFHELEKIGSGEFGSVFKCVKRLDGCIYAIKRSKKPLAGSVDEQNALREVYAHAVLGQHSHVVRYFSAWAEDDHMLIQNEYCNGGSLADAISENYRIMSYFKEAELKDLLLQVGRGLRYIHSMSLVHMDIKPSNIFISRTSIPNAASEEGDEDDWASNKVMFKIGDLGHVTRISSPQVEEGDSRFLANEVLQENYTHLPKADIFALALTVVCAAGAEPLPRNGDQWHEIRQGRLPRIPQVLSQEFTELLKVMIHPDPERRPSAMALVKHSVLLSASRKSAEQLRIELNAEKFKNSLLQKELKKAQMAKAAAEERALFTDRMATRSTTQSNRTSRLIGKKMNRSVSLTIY
Source text: as §1, §2, §3

PLK1 = target: T8, PLK1 (Homo sapiens, UniProt P53350)
T8 construct: purchased Ambit Biosciences Corp (KinomeScan); host or cells: E. coli host derived from BL21, infected with T7 phage
Source text: as §1, §2, §3

MELK = target: T9, MELK (Homo sapiens, UniProt Q14680)
T9 construct: host or cells: E. coli derived from BL21, infected with T7 phage
Source text: as §1, §2, §3

FLT4 = target: T10, FLT4 (Homo sapiens, UniProt P35916)
T10 construct: host or cells: E. coli host derived from BL21, infected with T7 phage
Source text: as §1, §2, §3

SgK085 = target: T11, SgK085 (Homo sapiens, UniProt Q86YV6)
T11 construct: host or cells: E. coli host derived from the BL21 strain, T7 phage lysate
T11 sequence (Q86YV6 whole entry): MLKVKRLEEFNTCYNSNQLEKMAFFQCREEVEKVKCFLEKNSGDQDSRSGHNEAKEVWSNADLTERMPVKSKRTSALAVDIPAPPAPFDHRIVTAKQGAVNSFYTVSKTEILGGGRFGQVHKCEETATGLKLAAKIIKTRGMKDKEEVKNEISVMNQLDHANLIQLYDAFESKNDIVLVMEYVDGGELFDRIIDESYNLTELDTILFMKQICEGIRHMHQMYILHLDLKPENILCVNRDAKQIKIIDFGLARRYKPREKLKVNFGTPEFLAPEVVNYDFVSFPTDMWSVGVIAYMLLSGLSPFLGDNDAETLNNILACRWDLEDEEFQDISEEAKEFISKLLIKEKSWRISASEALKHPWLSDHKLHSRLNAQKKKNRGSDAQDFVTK
Source text: as §1, §2, §3

ADCK3 = target: T12, ADCK3 (Homo sapiens, UniProt Q8NI60)
T12 construct: host or cells: E. coli host derived from BL21 (T7 phage lysate)
Source text: as §1, §2, §3

FLT3 (D835H) = target: T13, FLT3 (D835H) (Homo sapiens, UniProt P36888, D835H)
T13 construct: host or cells: E. coli host derived from BL21, infected with T7 phage
Source text: as §1, §2, §3

PRKG1 = target: T14, PRKG1 (Homo sapiens, UniProt Q13976)
T14 construct: purchased Ambit Biosciences Corp (KinomeScan); host or cells: E. coli host derived from BL21, infected with T7 phage
Source text: as §1, §2, §3

PIK3CG = target: T15, PIK3CG (Homo sapiens, UniProt P48736)
T15 construct: purchased Ambit Biosciences Corp (KinomeScan); host or cells: E. coli host derived from BL21, infected with T7 phage
T15 sequence (P48736 whole entry): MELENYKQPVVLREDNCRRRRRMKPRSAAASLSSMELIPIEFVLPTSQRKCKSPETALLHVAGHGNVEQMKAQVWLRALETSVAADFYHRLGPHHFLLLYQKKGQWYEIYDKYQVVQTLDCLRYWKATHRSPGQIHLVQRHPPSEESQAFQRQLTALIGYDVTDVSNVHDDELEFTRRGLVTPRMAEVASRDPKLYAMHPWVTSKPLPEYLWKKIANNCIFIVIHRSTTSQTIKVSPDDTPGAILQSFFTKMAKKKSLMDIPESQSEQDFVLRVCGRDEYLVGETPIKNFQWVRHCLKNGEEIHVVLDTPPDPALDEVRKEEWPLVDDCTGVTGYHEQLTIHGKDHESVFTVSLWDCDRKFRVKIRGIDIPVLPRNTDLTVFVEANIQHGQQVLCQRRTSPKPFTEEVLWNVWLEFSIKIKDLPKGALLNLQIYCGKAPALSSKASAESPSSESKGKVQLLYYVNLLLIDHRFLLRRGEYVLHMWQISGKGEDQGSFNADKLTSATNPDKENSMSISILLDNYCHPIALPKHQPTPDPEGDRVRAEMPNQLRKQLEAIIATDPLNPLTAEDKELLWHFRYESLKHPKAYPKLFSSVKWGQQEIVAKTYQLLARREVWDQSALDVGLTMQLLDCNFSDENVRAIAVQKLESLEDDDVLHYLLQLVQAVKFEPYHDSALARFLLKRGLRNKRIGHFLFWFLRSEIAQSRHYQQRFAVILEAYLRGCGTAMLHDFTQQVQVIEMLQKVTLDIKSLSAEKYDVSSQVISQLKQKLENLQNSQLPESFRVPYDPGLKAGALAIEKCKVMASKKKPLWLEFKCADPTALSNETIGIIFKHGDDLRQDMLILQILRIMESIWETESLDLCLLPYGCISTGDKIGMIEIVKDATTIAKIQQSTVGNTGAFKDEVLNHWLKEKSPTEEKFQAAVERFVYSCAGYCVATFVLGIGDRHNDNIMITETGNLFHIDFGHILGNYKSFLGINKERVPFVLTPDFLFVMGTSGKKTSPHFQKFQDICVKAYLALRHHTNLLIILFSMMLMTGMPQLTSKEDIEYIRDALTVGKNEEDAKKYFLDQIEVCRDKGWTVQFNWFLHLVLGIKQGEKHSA
Source text: as §1, §2, §3

CDK8 = target: T16, CDK8 (Homo sapiens, UniProt P49336)
T16 construct: host or cells: T7 phage in E. coli (BL21-derived)
Source text: as §1, §2, §3

PAK2 = target: T17, PAK2 (Homo sapiens, UniProt Q13177)
T17 construct: host or cells: E. coli host derived from the BL21 strain, infected with T7 phage
Source text: as §1, §2, §3

AXL = target: T18, AXL (Homo sapiens, UniProt P30530)
T18 construct: purchased Ambit Biosciences Corp (KinomeScan); host or cells: E. coli host derived from the BL21 strain, T7 phage
T18 sequence (P30530 26-894): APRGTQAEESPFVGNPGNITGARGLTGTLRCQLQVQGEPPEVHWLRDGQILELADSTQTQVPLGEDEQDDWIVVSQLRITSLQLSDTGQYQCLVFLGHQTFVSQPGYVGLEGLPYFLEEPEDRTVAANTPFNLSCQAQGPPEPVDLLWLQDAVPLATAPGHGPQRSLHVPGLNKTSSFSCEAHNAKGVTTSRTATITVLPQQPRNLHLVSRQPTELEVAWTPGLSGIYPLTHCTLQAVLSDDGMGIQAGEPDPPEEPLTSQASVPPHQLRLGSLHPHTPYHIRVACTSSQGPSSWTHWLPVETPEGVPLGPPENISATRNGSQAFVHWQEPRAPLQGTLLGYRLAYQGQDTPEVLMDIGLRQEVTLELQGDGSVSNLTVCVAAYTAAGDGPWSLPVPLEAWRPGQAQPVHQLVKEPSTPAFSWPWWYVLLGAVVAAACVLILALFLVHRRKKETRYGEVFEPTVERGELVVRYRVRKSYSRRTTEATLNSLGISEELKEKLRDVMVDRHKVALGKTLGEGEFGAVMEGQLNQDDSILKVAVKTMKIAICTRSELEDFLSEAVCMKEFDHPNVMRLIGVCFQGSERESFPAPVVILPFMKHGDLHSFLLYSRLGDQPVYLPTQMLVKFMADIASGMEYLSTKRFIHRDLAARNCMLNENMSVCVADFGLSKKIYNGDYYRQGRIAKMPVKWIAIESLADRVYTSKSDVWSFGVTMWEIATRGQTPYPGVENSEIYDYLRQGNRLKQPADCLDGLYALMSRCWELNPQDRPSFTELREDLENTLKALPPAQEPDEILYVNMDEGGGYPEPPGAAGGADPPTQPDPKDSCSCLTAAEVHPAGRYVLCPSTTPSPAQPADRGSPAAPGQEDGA
Source text: as §1, §2, §3

CDK5 = target: T19, CDK5 (Homo sapiens, UniProt Q00535)
T19 construct: host or cells: T7 phage in E. coli (BL21-derived)
Source text: as §1, §2, §3

MLCK = target: T20, MLCK (Homo sapiens, UniProt Q32MK0)
T20 construct: host or cells: T7 phage in E. coli host derived from BL21
Source text: as §1, §2, §3

AKT3 = target: T21, AKT3 (Homo sapiens, UniProt Q9Y243)
T21 construct: host or cells: E. coli host derived from BL21 (T7 phage lysate)
Source text: as §1, §2, §3

FLT3 (K663Q) = target: T22, FLT3 (K663Q) (Homo sapiens, UniProt P36888, K663Q)
T22 construct: host or cells: E. coli host derived from BL21, infected with T7 phage
Source text: as §1, §2, §3

T1 sequence (P06213 28-1382): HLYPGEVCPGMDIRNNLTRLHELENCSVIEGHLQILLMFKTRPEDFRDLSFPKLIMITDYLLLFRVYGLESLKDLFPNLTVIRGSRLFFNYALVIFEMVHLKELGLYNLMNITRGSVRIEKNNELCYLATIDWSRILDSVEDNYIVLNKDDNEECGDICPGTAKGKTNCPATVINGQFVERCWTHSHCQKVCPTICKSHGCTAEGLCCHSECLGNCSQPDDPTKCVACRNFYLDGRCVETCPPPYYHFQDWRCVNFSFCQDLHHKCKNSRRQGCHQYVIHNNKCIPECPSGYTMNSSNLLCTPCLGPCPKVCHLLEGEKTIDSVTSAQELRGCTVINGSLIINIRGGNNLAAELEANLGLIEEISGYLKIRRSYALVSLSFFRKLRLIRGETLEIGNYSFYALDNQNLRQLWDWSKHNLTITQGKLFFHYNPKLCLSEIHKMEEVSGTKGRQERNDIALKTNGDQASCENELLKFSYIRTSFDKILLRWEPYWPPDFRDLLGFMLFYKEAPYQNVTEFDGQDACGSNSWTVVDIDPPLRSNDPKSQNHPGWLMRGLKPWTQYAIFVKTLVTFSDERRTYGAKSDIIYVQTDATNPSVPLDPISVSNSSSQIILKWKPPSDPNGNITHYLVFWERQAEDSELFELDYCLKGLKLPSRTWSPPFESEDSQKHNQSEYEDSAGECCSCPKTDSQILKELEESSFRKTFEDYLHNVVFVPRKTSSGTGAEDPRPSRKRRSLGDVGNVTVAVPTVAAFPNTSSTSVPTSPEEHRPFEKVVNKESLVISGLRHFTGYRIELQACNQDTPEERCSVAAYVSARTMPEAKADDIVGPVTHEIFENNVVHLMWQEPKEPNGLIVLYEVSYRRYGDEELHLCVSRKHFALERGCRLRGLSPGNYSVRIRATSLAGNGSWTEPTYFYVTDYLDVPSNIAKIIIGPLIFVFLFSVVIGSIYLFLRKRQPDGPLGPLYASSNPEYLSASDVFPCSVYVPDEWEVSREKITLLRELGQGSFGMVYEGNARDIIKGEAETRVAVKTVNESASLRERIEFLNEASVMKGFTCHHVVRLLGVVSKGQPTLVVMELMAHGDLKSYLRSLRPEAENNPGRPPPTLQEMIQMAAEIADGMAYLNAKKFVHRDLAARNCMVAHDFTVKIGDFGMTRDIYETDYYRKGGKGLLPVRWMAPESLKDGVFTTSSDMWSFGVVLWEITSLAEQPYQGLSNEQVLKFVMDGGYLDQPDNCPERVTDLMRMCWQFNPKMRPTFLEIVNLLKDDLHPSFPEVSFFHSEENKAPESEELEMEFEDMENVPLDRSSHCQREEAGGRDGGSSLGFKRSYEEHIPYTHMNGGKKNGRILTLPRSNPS

## C#Cc1cccc(Nc2ncnc3cc(OC)c(OCCCN4CCOCC4)cc23)c1 [NRC-2694, N-(3-ethylnylphenyl)-7-methoxy-6-[3-(4-morpholinyl)propoxy]-4-quinazolinamine]
INSR
  % Ctrl @ 10000 nM: 90 % Ctrl
BRK
  % Ctrl @ 10000 nM: 46 % Ctrl
[1]
  % Ctrl @ 10000 nM: 94 % Ctrl
[2]
  % Ctrl @ 10000 nM: 85 % Ctrl
NEK2
  % Ctrl @ 10000 nM: 63 % Ctrl
PKMYT1
  % Ctrl @ 10000 nM: 74 % Ctrl
WEE1
  % Ctrl @ 10000 nM: 74 % Ctrl
PLK1
  % Ctrl @ 10000 nM: 81 % Ctrl
MELK
  % Ctrl @ 10000 nM: 57 % Ctrl
FLT4
  % Ctrl @ 10000 nM: 66 % Ctrl
SgK085
  % Ctrl @ 10000 nM: 84 % Ctrl
ADCK3
  % Ctrl @ 10000 nM: 14 % Ctrl
FLT3 (D835H)
  % Ctrl @ 10000 nM: 8.1 % Ctrl
PRKG1
  % Ctrl @ 10000 nM: 75 % Ctrl
PIK3CG
  % Ctrl @ 10000 nM: 78 % Ctrl
CDK8
  % Ctrl @ 10000 nM: 100 % Ctrl
PAK2
  % Ctrl @ 10000 nM: 67 % Ctrl
AXL
  % Ctrl @ 10000 nM: 25 % Ctrl
CDK5
  % Ctrl @ 10000 nM: 100 % Ctrl
MLCK
  % Ctrl @ 10000 nM: 77 % Ctrl
AKT3
  % Ctrl @ 10000 nM: 66 % Ctrl
FLT3 (K663Q)
  % Ctrl @ 10000 nM: 56 % Ctrl
